The values that follow come from patent US20130123222A1, “Synergistic Anti-Cancer Activity of SR16388 with Anti-Mitotic Drugs” (SRI INTERNATIONAL, INC., priority 2011, published 2013).

For data set [1], the system named is panel of 48 to 60 cell lines. Kind of data set: 5×4 combination screen with SR16388, CellTiter-Glo viability; synergy by pattern recognition. The conditions noted are these: in combination with SR16388, 5x4-T1; for no effect (number of cell lines) / synergy (number of cell lines): pattern recognition, of 60 cell lines incl. no data; for % synergy: share of cell lines with data.
Experimental: Cells were treated with compounds alone or in combination for three days and CellTiter-Glo® Luminescent Cell Viability Assay (Promega Corp.) was used as the endpoint to measure cell viability.
Cells were cultured in DMEM with 10% fetal bovine serum and used between passage 2 and passage 20. Cells were harvested on Day-1 (FIG. 1A) and re-supspended to the corresponding seeding density and seeded with Wellmate (ThermoFisher) to 384 plates (BD or GBO).
40 mM Compound stocks in 100% DMSO were made. Master plates were made with Janus (PerkinElmer), then further diluted and added to the cell plates with Matrix Platemate (Thermo) on Day 0.
CellTiter-Glo® Luminescent Cell Viability Assay (Promega Corp.) was used to measure ATP as an indicator of viable cells on Day 3 using Envision (PerkinElmer) and back up reader Analyst HT (MDS) and Gen5 (BioTek).
Single point, 5×4 checkque board platemap was used in the initial screening.
Relative Luminescent Units (RLU) were plotted against corresponding drug concentrations and fitted with standard four parameter sigmoidal curve with custom coded R program or Calcusyn (Biosoft, Cambridge, UK).

The subject of data set [2] is panel of 48 to 60 cell lines. Kind of data set: 5×4 combination screen with SR16388; synergism hit rate by algorithm (Z score). It counts as cell-based. The conditions noted are these: in combination with SR16388, all 20 (5×4) dose combinations. How it is done:
(§1) SR16388 was synthesized in house.
5) A “combination score” was assigned to each specific combination (Ca1b1x): C=1 if Za1b1x>3*SD and C=0 if Za1b1x≦3*SD score);
6) Hit rate of each combination was calculated by comparing the sum of the combination scores of all 20 (5×4) dose combinations with all cell lines to the total number of data points of that specific combination;
7) Hit rate were ranked from high to low to identify potential synergistic combinations.

In data set [3] the test system is various cancer cell lines. Kind of data set: 11×7 synergism hit rate over all cell lines (by algorism). Particulars: when tested with SR16388. It counts as cell-based.
Text: as §1
Within the same type of cancer cells, some cell lines have more synergistic hits than others. Melanoma and breast cancer cell lines had the highest hit rate.

Data set [4] deals with cancer cell lines. Kind of data set: Combination cell viability assay, general observations on ratios and confirmed synergy. It counts as cell-based. The conditions noted are these: in combination with SR16388.
Experimental: Cells were treated with compounds alone or in combination for three days and CellTiter-Glo® Luminescent Cell Viability Assay (Promega Corp.) was used as the endpoint to measure cell viability. […] Cells were harvested on Day-1 (FIG. 1A) and re-supspended to the corresponding seeding density and seeded with Wellmate (ThermoFisher) to 384 plates (BD or GBO). […] Master plates were made with Janus (PerkinElmer), then further diluted and added to the cell plates with Matrix Platemate (Thermo) on Day 0. CellTiter-Glo® Luminescent Cell Viability Assay (Promega Corp.) was used to measure ATP as an indicator of viable cells on Day 3 using Envision (PerkinElmer) and back up reader Analyst HT (MDS) and Gen5 (BioTek). Relative Luminescent Units (RLU) were plotted against corresponding drug concentrations and fitted with standard four parameter sigmoidal curve with custom coded R program or Calcusyn (Biosoft, Cambridge, UK).
A short description of data set [5]: Prior in vivo xenograft study and other safety data.

Numbered stars: 1 amine (or outer) side, 2 acyl side, 3 side chain; on linkers, the order of the positions; unused ones are H or OH. Bridge positions count the residues as written; N and C are the ends. Square brackets hold non-standard residues; d marks the D form. Peptide text beside a SMILES is read from it. I, II: the chains in the order shown. Actinocin(9to1) = Cc1c2oc3c(C)ccc(C(=O)[*:1])c3nc-2c(C(=O)[*:2])c(N)c1=O; NMeV = CN[C@H](C(=O)O)C(C)C; Sar = CNCC(=O)O

Turning to `Nc1nc(Cl)nc2c1ncn2[C@H]1C[C@H](O)[C@@H](CO)O1` [Cladribine], in data set [1], the “no effect (number of cell lines)” value is on record as 42, the “synergy (number of cell lines)” value was 0 and the “% synergy” value worked out at 0%. Besides, the “% hit/combo” value in data set [2] was 0.67%.
As for `S=P(N1CC1)(N1CC1)N1CC1` [Thiotepa], the “no effect (number of cell lines)” value in data set [1] is 42. In addition, in data set [2], the “% hit/combo” value stood at 0.83%.
`Cc1c2oc3c(C)ccc(C(=O)N[C@@H]4C(=O)N[C@H](C(C)C)C(=O)N5CCC[C@H]5C(=O)N(C)CC(=O)N(C)[C@@H](C(C)C)C(=O)O[C@@H]4C)c3nc-2c(C(=O)N[C@@H]2C(=O)N[C@H](C(C)C)C(=O)N3CCC[C@H]3C(=O)N(C)CC(=O)N(C)[C@@H](C(C)C)C(=O)O[C@@H]2C)c(N)c1=O` [Actinomycin] (I: T[dV]P[Sar][NMeV] / II: T[dV]P[Sar][NMeV]; ester I:1-I:C, II:1-II:C; linker I:N-II:N via Actinocin(9to1)): the “no effect (number of cell lines)” value in data set [1] came out at 39. The hit rate in data set [3] is given as 1.89%. For the same compound, the “% hit/combo” value in data set [2] is listed as 1.67%.
For the compound `Nc1ccn([C@@H]2O[C@H](CO)[C@@H](O)C2(F)F)c(=O)n1` [Gemcitabine], in data set [1], the “no effect (number of cell lines)” value came out at 58, the “synergy (number of cell lines)” value was found to be 0 and the “% synergy” value is 0%. Moreover, the “% hit/combo” value in data set [2] is recorded as 0.83%.
Consider `C/C=C1\NC(=O)[C@H]2CSSCC/C=C/[C@H](CC(=O)N[C@H](C(C)C)C(=O)N2)OC(=O)[C@H](C(C)C)NC1=O` [Romidepsin], for which, in data set [1], the “no effect (number of cell lines)” value is on record as 52, the “synergy (number of cell lines)” value is 6 and the “% synergy” value amounted to 10%. Further, in data set [2], the “% hit/combo” value was 0.75%.
For `Cc1ccc(NC(=O)c2ccc(CN3CCN(C)CC3)cc2)cc1Nc1nccc(-c2cccnc2)n1` [Imatinib], in that order: 41, 1, 2% and 0.92%.
Take `Cc1nc(Nc2ncc(C(=O)Nc3c(C)cccc3Cl)s2)cc(N2CCN(CCO)CC2)n1` [Dasatinib]: in data set [1], the “no effect (number of cell lines)” value came to 50, the “synergy (number of cell lines)” value was 8 and the “% synergy” value was determined as 14%. In addition, the “% hit/combo” value in data set [2] amounted to 1.08%.
For `O=c1[nH]c(=O)n([C@H]2C[C@H](O)[C@@H](CO)O2)cc1F` [Floxuridine], in that order: 42, 0, 0% and 0.67%.
As to `CO[C@H]1C[C@@H]2CC[C@@H](C)[C@@](O)(O2)C(=O)C(=O)N2CCCC[C@H]2C(=O)O[C@H]([C@H](C)C[C@@H]2CC[C@@H](O)[C@H](OC)C2)CC(=O)[C@H](C)/C=C(\C)[C@@H](O)[C@@H](OC)C(=O)[C@H](C)C[C@H](C)/C=C/C=C/C=C/1C` [Rapamycin], the “no effect (number of cell lines)” value in data set [1] turned out to be 54. In addition, the “% hit/combo” value in data set [2] is 0.83%.
As to `CC1=C(/C=C/C(C)=C/C=C/C(C)=C/C(=O)O)C(C)(C)CCC1` [Tretinoin], in data set [1], the “no effect (number of cell lines)” value is on record as 42, the “synergy (number of cell lines)” value turned out to be 0 and the “% synergy” value came to 0%. Also, the “% hit/combo” value in data set [2] worked out at 0.58%.
For `Nc1ccn([C@@H]2O[C@H](CO)[C@@H](O)[C@@H]2O)c(=O)n1` [Cytarabine], in that order: 42, 0, 0% and 0.33%.
For `CCCCCOC(=O)Nc1nc(=O)n([C@@H]2O[C@H](C)[C@@H](O)[C@H]2O)cc1F` [Capecitabine], in that order: 58, 0, 0% and 1.08%.
In the same order, the values of `N#Cc1ccc(C(c2ccc(C#N)cc2)n2cncn2)cc1` [Letrozole] are 42, 0, 0% and 0.42%.
As for `O=C(CCCCCCC(=O)Nc1ccccc1)NO` [Vorinostat], in data set [1], the “no effect (number of cell lines)” value turned out to be 58, the “synergy (number of cell lines)” value worked out at 0 and the “% synergy” value was 0%. In addition, the “% hit/combo” value in data set [2] was 0.83%.
For the compound `Cc1cn(-c2cc(NC(=O)c3ccc(C)c(Nc4nccc(-c5cccnc5)n4)c3)cc(C(F)(F)F)c2)cn1` [Nilotinib], in data set [1], the “no effect (number of cell lines)” value was 42, the “synergy (number of cell lines)” value came out at 0 and the “% synergy” value was 0%. Moreover, the “% hit/combo” value in data set [2] is given as 0.33%.
For `CS(=O)(=O)CCNCc1ccc(-c2ccc3ncnc(Nc4ccc(OCc5cccc(F)c5)c(Cl)c4)c3c2)o1` [Lapatinib], in that order: 55, 3, 5% and 0.67%.
With `CCN(CC)CCNC(=O)c1c(C)[nH]c(/C=C2\C(=O)Nc3ccc(F)cc32)c1C` [Sunitinib], in data set [1], the “no effect (number of cell lines)” value worked out at 56. In addition, in data set [2], the “% hit/combo” value amounted to 1.25%.
Turning to `COc1nc(N)nc2c1ncn2[C@@H]1O[C@H](CO)[C@@H](O)[C@@H]1O` [Nelarabine], in data set [1], the “no effect (number of cell lines)” value is listed as 58, the “synergy (number of cell lines)” value was found to be 0 and the “% synergy” value turned out to be 0%. Moreover, the “% hit/combo” value in data set [2] is listed as 0.33%.
`CCc1c2c(nc3ccc(O)cc13)-c1cc3c(c(=O)n1C2)COC(=O)[C@]3(O)CC` [SN38]: in data set [1], the “no effect (number of cell lines)” value worked out at 45, the “synergy (number of cell lines)” value was determined as 13 and the “% synergy” value was 22%. In data set [2], the “% hit/combo” value was 0.58%.
For `Cc1ccc(-c2cc(C(F)(F)F)nn2-c2ccc(S(N)(=O)=O)cc2)cc1` [Celecoxib], in that order: 42, 0, 0% and 0.67%.
In the same order, the values of `CC/C(=C(\c1ccccc1)c1ccc(OCCN(C)C)cc1)c1ccccc1` [Tamoxifen] are 39, 3, 7% and 0.83%.
Regarding `Nc1nc(Cl)nc2c1ncn2[C@@H]1O[C@H](CO)[C@@H](O)[C@@H]1F` [Clofarabine], the “no effect (number of cell lines)” value in data set [1] is listed as 58. Moreover, the “% hit/combo” value in data set [2] came to 0.50%.
`Cn1nnc2c(C(N)=O)ncn2c1=O` [Temozolomide]: the “no effect (number of cell lines)” value in data set [1] stood at 42. Further, the “% hit/combo” value in data set [2] turned out to be 0.75%.
Regarding `CO[C@H]1C[C@@H]2CC[C@@H](C)[C@@](O)(O2)C(=O)C(=O)N2CCCC[C@H]2C(=O)O[C@H]([C@H](C)C[C@@H]2CC[C@@H](OCCO)[C@H](OC)C2)CC(=O)[C@H](C)/C=C(\C)[C@@H](O)[C@@H](OC)C(=O)[C@H](C)C[C@H](C)/C=C/C=C/C=C/1C` [Everolimus], in data set [1], the “no effect (number of cell lines)” value is on record as 58, the “synergy (number of cell lines)” value came to 0 and the “% synergy” value is on record as 0%. For the same compound, the “% hit/combo” value in data set [2] is recorded as 0.42%.
As to `CCC1=C[C@@H]2CN(C1)Cc1c([nH]c3ccccc13)[C@@](C(=O)OC)(c1cc3c(cc1OC)N(C)[C@H]1[C@@](O)(C(=O)OC)[C@H](OC(C)=O)[C@]4(CC)C=CCN5CC[C@]31[C@@H]54)C2` [Vinorelbine], the “interaction with SR16388 (confirmed)” value in data set [4] is recorded as “synergistic anti-proliferation effect”.
Consider `N.N.O=C([O-])C1(C(=O)[O-])CCC1.[Pt+2]` [Carboplatin], for which, in data set [1], the “no effect (number of cell lines)” value came to 41, the “synergy (number of cell lines)” value came out at 1 and the “% synergy” value is on record as 2%. For the same compound, the “% hit/combo” value in data set [2] is 0.83%.
Consider `C[C@@H]1Cc2cc(O)ccc2[C@H]2CC[C@]3(C)/C(=C/COCCN(C)C)CC[C@H]3[C@H]12` [SR16388], for which, in data set [5], the “overlapping toxicities with microtubulin inhibitors” value was “does not have ovelapping toxicities” and the tolerability entry was “well tolerated”.
In the case of `Nc1nc(F)nc2c1ncn2[C@@H]1O[C@H](CO)[C@@H](O)[C@@H]1O` [FluroaraA], in data set [1], the “no effect (number of cell lines)” value is given as 42, the “synergy (number of cell lines)” value is given as 0 and the “% synergy” value is recorded as 0%. Besides, in data set [2], the “% hit/combo” value is listed as 0.67%.
